# Test results from ChEMBL document CHEMBL1201862, “PubChem BioAssay data set” (2004).
#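 Tested at 5 concentrations; 48 h exposure; 96-well plates; endpoints linearly interpolated, else capped at highest concentration. GI50: concentration for 50% inhibition of growth.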 Activity calls are given as the source filed them. Cut-off read from the data, not from the text of the source: active = GI50 up to about 1.1 µM and inactive = higher.
# How the values were obtained:
# Assay in all cases: inhibition of tumour cell growth, NCI panel, 48 h
# DLD-1 = test system: DLD-1
# DMS-114 = test system: DMS-114
# DMS-273 = test system: DMS-273
# HOP-18 = test system: HOP-18
# KM-20L2 = test system: KM-20L2
# M19-MEL = test system: M19-MEL
# RXF 631 = test system: RXF 631
# LXFL 529 = test system: LXFL 529
# XF498 = test system: XF498
SMILES,GI50 (DLD-1),GI50 (DMS-114),GI50 (DMS-273),GI50 (HOP-18),GI50 (KM-20L2),GI50 (M19-MEL),GI50 (RXF 631),GI50 (LXFL 529),GI50 (XF498)
CC1=C(/C=C/C(C)=C/C=C/C(C)=C/C=C/C=C(C)/C=C/C=C(C)/C=C/C2=C(C)C(=O)C(O)CC2(C)C)C(C)(C)CC(O)C1=O (configuration not stated),> 100 µM (inactive),> 100 µM (inactive),> 100 µM (inactive),> 100 µM (inactive),> 100 µM (inactive),> 100 µM (inactive),> 100 µM (inactive),,
CCN(CC)c1ccc(C(=C2C=CC(=[N+](CC)CC)C=C2)c2ccccc2)cc1,0.0274 µM (active),0.0156 µM (active),0.0304 µM (active),,0.0302 µM (active),0.0379 µM (active),,0.0225 µM (active),0.0149 µM (active)
c1ccc2c3nc(C4CCCC4)nc-3c(NC3CCCC3)[nH]c2c1,30 µM (inactive),17.8 µM (inactive),8.43 µM (inactive),16 µM (inactive),5 µM (inactive),13.2 µM (inactive),,8.32 µM (inactive),19.6 µM (inactive)
C=C1COC(O)(C2OCOC(C3CC(=O)NC(=O)C3)C2O)C1C (configuration not stated),0.00416 µM (active),0.00319 µM (active),0.00417 µM (active),0.00357 µM (active),0.00281 µM (active),0.00156 µM (active),0.0037 µM (active),0.00222 µM (active),< 0.01 µM (active)
O=c1c2cc3ccccc3n2c(=O)c2cc3ccccc3n12,> 100 µM (inactive),> 100 µM (inactive),> 100 µM (inactive),> 100 µM (inactive),> 100 µM (inactive),> 100 µM (inactive),,> 100 µM (inactive),> 100 µM (inactive)
CCOC(=O)/N=c1\ss/c(=N\C(=S)N(C)C)n1-c1ccccc1,> 10 µM (inactive),0.453 µM (active),2.15 µM (inactive),> 10 µM (inactive),> 10 µM (inactive),0.834 µM (active),,4.44 µM (inactive),28.8 µM (inactive)
O=P(c1ccccc1)(c1ccccc1)C1CC=C2CCCCCC2C1 (configuration not stated),,24.5 µM (inactive),27.4 µM (inactive),19.2 µM (inactive),> 10 µM (inactive),36 µM (inactive),27.2 µM (inactive),21.4 µM (inactive),33 µM (inactive)
Cc1nc2ccccc2c(=O)n1-c1ccccc1I,> 100 µM (inactive),82.4 µM (inactive),,,,> 100 µM (inactive),,90.4 µM (inactive),
O=c1c2cc(Br)ccc2[nH]c(=S)n1-c1ccc(Br)cc1,> 100 µM (inactive),> 100 µM (inactive),,> 100 µM (inactive),> 100 µM (inactive),> 100 µM (inactive),,> 100 µM (inactive),
O=C(CCc1nnc(S)[nH]1)NC12CC3CC(CC(C3)C1)C2,> 100 µM (inactive),> 100 µM (inactive),> 100 µM (inactive),> 100 µM (inactive),> 100 µM (inactive),> 100 µM (inactive),> 100 µM (inactive),> 100 µM (inactive),> 100 µM (inactive)
N#CCCN(CCC#N)c1ccc(/C=N\c2ccc(F)cc2)cc1,0.347 µM (active),13.8 µM (inactive),4.61 µM (inactive),> 100 µM (inactive),0.152 µM (active),1.63 µM (inactive),> 45.8 µM (inactive),0.121 µM (active),> 100 µM (inactive)
O=CCCCC(Sc1ccccc1)Sc1ccccc1,15.3 µM (inactive),23.9 µM (inactive),17.3 µM (inactive),,39.5 µM (inactive),18.1 µM (inactive),20.6 µM (inactive),13 µM (inactive),19 µM (inactive)
COC(=O)C(=O)C(C#N)c1ccc(CC#N)cc1 (configuration not stated),> 100 µM (inactive),,> 100 µM (inactive),,> 100 µM (inactive),> 100 µM (inactive),,> 100 µM (inactive),> 100 µM (inactive)
CC1(C)OC(=O)C(=C2CCC(C(=O)Nc3cccc(C(F)(F)F)c3)N2)C(=O)O1 (configuration not stated),> 100 µM (inactive),37.4 µM (inactive),> 100 µM (inactive),> 100 µM (inactive),68.4 µM (inactive),60.8 µM (inactive),,39.6 µM (inactive),31.3 µM (inactive)
CCOc1ccc(/N=C/c2ccnc3ccccc23)cc1,4.57 µM (inactive),17.3 µM (inactive),28.1 µM (inactive),> 100 µM (inactive),43.7 µM (inactive),> 71.1 µM (inactive),,16.2 µM (inactive),> 100 µM (inactive)
CCO[C@@H]1C2C=CC(C2)[C@H]1[N+](=O)[O-] (some centres not stated),> 100 µM (inactive),> 100 µM (inactive),> 100 µM (inactive),> 100 µM (inactive),> 100 µM (inactive),> 100 µM (inactive),,> 100 µM (inactive),> 100 µM (inactive)
O=C[C@]12CC=C3OC4OC5(CCCCC5)OC4[C@H]3[C@H]1C(=O)C=CC2=O (some centres not stated),17.3 µM (inactive),19.1 µM (inactive),39.2 µM (inactive),,,23.1 µM (inactive),35.6 µM (inactive),19 µM (inactive),14.6 µM (inactive)
O=[N+]([O-])c1cccc(C2=NN(c3ccccc3)C[N+](c3ccc(Br)cc3)=N2)c1,96.8 µM (inactive),,77.4 µM (inactive),43.7 µM (inactive),> 100 µM (inactive),70.8 µM (inactive),,46.8 µM (inactive),> 100 µM (inactive)
CCCC/C=C/C=C/C=C/CCCCCCCC(=O)OCC(COC(=O)CCCCCCC/C=C/C1C=CC(CCCC)C(C(=O)O)C1C(=O)O)OC(=O)CCCCCCC/C=C/C=C/C=C/CCCC.OCCNCO (configuration not stated),20 µM (inactive),10.9 µM (inactive),16.3 µM (inactive),17.2 µM (inactive),20.9 µM (inactive),17.5 µM (inactive),,17.8 µM (inactive),
COc1ccc(/C=C2\SC(c3ccc(OC)cc3)N(NC(=O)Cc3ccccc3)C2=O)cc1 (configuration not stated),> 100 µM (inactive),> 100 µM (inactive),> 100 µM (inactive),> 100 µM (inactive),,> 100 µM (inactive),,> 100 µM (inactive),
COc1ccc(/C=N/N=C(\N)NO)cc1F,53.7 µM (inactive),,17.5 µM (inactive),13.8 µM (inactive),9.02 µM (inactive),21.6 µM (inactive),14.5 µM (inactive),11.6 µM (inactive),25.3 µM (inactive)
COc1ccc2nc3ccccc3c(NCCN(C)CCCl)c2c1,0.524 µM (active),0.752 µM (active),0.412 µM (active),2.06 µM (inactive),0.438 µM (active),0.906 µM (active),,0.393 µM (active),0.514 µM (active)
O=C(CC1=Nc2nnc(-c3nnc4n3C(=O)C(CC(=O)c3cccnc3)=N4)n2C1=O)c1cccnc1,> 100 µM (inactive),> 100 µM (inactive),> 100 µM (inactive),,> 100 µM (inactive),> 100 µM (inactive),> 100 µM (inactive),> 100 µM (inactive),
Cc1nn2c(nc1=O)sc1ccc3ccccc3c12,> 100 µM (inactive),> 100 µM (inactive),> 100 µM (inactive),> 100 µM (inactive),> 100 µM (inactive),> 100 µM (inactive),,> 100 µM (inactive),> 100 µM (inactive)
CS(=O)(=O)N(CCC#N)c1ccc(/C=C2\N=C(c3ccccc3Cl)OC2=O)cc1,> 100 µM (inactive),> 100 µM (inactive),> 100 µM (inactive),,> 100 µM (inactive),> 100 µM (inactive),,> 100 µM (inactive),> 100 µM (inactive)
CC1(C)O[C@H]2OC3CCC(=O)CC3(O)[C@H]2O1 (some centres not stated),> 100 µM (inactive),> 100 µM (inactive),,,,> 100 µM (inactive),,,0.507 µM (active)
O=C1/C(=C/c2ccccc2Cl)COc2ccccc21,15.3 µM (inactive),18 µM (inactive),15 µM (inactive),11.8 µM (inactive),18.5 µM (inactive),18.6 µM (inactive),19.2 µM (inactive),17.5 µM (inactive),15.6 µM (inactive)
C[C@@]12CCC(=O)c3coc(c31)C(=O)c1cc3c(cc12)C(=O)C=CC3=O [HELENAQUINONE],15.4 µM (inactive),14 µM (inactive),15.5 µM (inactive),17.3 µM (inactive),> 86.5 µM (inactive),6.05 µM (inactive),,17.4 µM (inactive),18.9 µM (inactive)
